Data: patent US20260297031A1, “HYDROXYLAMINE-BASED BCR-ABL1 INHIBITORS FOR TREATMENT OF CANCER” (University of Georgia Research Foundation, Inc., priority 2023, published 2026)
Where two headings read alike, the source gives them in different places.

Assays:
[1] = Metabolic stability in human liver microsomes; assay type: in vitro ADME; conditions: human liver microsomes
Procedure: Metabolic Stability in Liver Microsomes (Independently Performed by Pharmaron Inc., Ninqbo, CN)
This experiment was carried out under two separate set of conditions: i) with Cofactors (NADPH), which consisted of adding 25 μL of 10 mM NADPH to the incubations, giving a final NADPH concentration of 1 mM, and ii) without Cofactors (NADPH), which consisted of adding 25 μL of 100 mM phosphate buffer to the incubations. Under both sets of conditions, the final concentration of microsomes were 0.5 mg/mL. […] Samples were then centrifuged at 3,220 g for 40 min and aliquots of 100 μL of the supernatant were mixed with 100 μL of ultra-pure H2O and analyzed by LC-MS/MS.
Peak areas were determined from extracted ion chromatograms. The slope value, k, was determined by linear regression of the natural logarithm of the remaining percentage of the parent drug vs incubation time curve.

BCR-ABL1 T315I = molecular target: T1, BCR-ABL1 T315I (Homo sapiens, UniProt P00519, T315I); assay: KinaseProfiler radiometric kinase assay, BCR-ABL1 T315I; assay type: biochemical; conditions: [ATP] = 10 μM; mean of n = 2
T1 construct: BCR (fusion partner, as the printed name BCR-ABL1 says)

BCR-ABL1 wt = molecular target: T2, BCR-ABL1 wt (Homo sapiens, UniProt P00519); assay: KinaseProfiler radiometric kinase assay, BCR-ABL1 wt; assay type: biochemical; conditions: [ATP] = 10 μM; mean of n = 2
T2 construct: called BCR-ABL1 in the text

[2] = Metabolic stability in mouse hepatocytes; assay type: in vitro ADME; conditions: read-out: Remaining Percentages
Procedure: All calculations were carried out using Microsoft Excel. Peak areas were determined from extracted ion chromatograms.

Structure (SMILES)	half-life at 1 µM [1] [min]	microsomal CLint at 1 µM ([1]; read-out: LMCIint (rate of metabolism)) [µL/min/mg]	IC50 (BCR-ABL1 T315I) [nM]	IC50 (BCR-ABL1 wt) [nM]	remaining at 0.5 min ([2]; 0.5 min) [%]	remaining at […] ([2]; 15 min) [%]	remaining at 0.5 h ([2]; 30 min) [%]	remaining at 1 h ([2]; 60 min) [%]	remaining at […] ([2]; 90 min, BLOD = below level of detection) [%]	remaining at 2 h ([2]; 120 min, BLOD = below level of detection) [%]
COc1cc(Nc2c(C#N)cnc3cc(OCCON4CCN(C)CC4)c(OC)cc23)c(F)cc1Cl [Compound 15, 4-((4-chloro-2-fluoro-5-methoxyphenyl)amino)-6-methoxy-7-(2-((4-methylpiperazin-1-yl)oxy)ethoxy)quinoline-3-carbonitrile]	4.3	321	166	1	–	–	–	–	–	–
COc1cc(Cl)ccc1Nc1c(C#N)cnc2cc(OCCON3CCN(C)CC3)c(OC)cc12 [Compound 20, 4-((4-Chloro-2-methoxyphenyl)amino)-6-methoxy-7-(2-((4-methylpiperazin-1-yl)oxy)ethoxy)quinoline-3-carbonitrile]	–	–	–	–	100	55.5	28.6	13.3	6.75	2.89
